Article PMC8607422, “Development of a novel TLR8 agonist for cancer immunotherapy” (Molecular Biomedicine, 2020)

Key:
[1] = tested on: EMT6 mouse breast cancer cells; assay: EMT6 mouse syngeneic breast cancer model; assay type: in vivo; settings: AZD-1775 30 mg/kg po bid
Method: All the animal experiments were conducted following Association for Assessment and Accreditation of Laboratory Animal Care (AAALAC)‘s guideline. The animal protocols were approved by the Institutional Animal Care and Use Committee (IACUC). Cell lines were purchased from credible vendors including ATCC. After tumor cell inoculation, the animals were checked daily for morbidity and mortality. At the time of routine monitoring, the animals were checked for any effects of tumor growth and treatment on the animals’ well-being such as mobility, food and water consumption, body weight gain/loss, matting and any other abnormalities. Clinical observations were recorded. Tumor volumes were measured twice a week in two dimensions using a caliper and the volume was expressed in mm^3 using the formula: V = 0.5 a × b^2 where a and b are the long and short diameters of the tumor, respectively. The procedures of dosing as well as tumor and body weight measurement were conducted in a laminar flow cabinet.
For EMT6 experiments, EMT6 mouse breast cancer cells were cultured in vitro as a monolayer culture in RPMI1640 medium supplemented with 10% fetal bovine serum and 1% penicillin/streptomycin at 37°C in an atmosphere of 5% CO2 in air. […] The cells growing in the exponential growth phase were harvested and counted for tumor inoculation. […]

hTLR7 = target: T1, hTLR7 (Homo sapiens, UniProt Q9NYK1); assay: HEK-Blue hTLR7 SEAP reporter agonist assay; assay type: cell-based; settings: positive control
T1 construct: host or cells: HEK-Blue hTLR7
T1 sequence (Q9NYK1 27-1049): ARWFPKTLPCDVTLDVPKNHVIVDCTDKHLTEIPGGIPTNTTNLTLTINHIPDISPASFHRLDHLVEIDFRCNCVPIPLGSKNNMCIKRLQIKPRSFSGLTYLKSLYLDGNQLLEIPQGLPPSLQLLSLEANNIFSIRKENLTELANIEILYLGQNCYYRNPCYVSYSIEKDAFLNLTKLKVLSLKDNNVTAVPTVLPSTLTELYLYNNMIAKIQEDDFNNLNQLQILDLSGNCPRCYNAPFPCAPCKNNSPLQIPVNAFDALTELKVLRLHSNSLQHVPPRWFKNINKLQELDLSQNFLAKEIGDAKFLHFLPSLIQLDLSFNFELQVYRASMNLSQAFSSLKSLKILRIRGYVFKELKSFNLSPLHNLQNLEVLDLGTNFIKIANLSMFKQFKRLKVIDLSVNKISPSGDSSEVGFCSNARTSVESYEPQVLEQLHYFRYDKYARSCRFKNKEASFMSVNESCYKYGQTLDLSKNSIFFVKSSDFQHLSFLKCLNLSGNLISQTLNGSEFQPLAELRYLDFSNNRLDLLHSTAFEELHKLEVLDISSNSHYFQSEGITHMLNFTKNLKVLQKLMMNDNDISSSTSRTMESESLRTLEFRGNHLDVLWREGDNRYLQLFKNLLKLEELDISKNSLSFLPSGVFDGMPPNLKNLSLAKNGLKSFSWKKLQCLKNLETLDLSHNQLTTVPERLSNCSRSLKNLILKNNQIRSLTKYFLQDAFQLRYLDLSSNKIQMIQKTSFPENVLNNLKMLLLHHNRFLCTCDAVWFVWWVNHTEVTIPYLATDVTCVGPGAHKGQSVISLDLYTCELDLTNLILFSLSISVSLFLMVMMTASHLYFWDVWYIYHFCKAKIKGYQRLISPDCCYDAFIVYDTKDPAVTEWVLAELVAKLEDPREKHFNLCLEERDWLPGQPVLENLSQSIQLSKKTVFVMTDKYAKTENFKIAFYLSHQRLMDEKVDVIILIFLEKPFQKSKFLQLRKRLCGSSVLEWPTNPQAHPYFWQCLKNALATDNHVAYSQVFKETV
Description: HEK-Blue™ hTLR4, 7, 8 and 9 cell lines were purchased from InvivoGen (Hong Kong). The cells express the human TLR gene and NF-κB/AP-1-inducible SEAP (secreted embryonic alkaline phosphatase) reporter gene. SEAP levels produced upon TLR stimulation can be determined by QUANTI-Blue™. In the cell-based assay, the main reagents used were QUANTI-Blue™ (InvivoGen) and ATPlite 1 Step (Perkin Elmer). The main instruments used were the microplate reader SpectraMax 340PC (Molecular Device) and Envision (Perkin Elmer). Motolimod and DN052 were synthesized in house. […] The compounds were in 10 mM stock solution in DMSO and stored at − 20°C. The compounds were serially diluted in the concentration range from 0.5 nM to 15 μM (up to 50 μM in the hTLR4, hTLR7 and hTLR9 assays) and added to 96-well plates. DMSO was used as the negative control. LPS-EK, R848, motolimod and ODN2006 were used as the positive control for TLR4, 7, 8 and 9, respectively. The cells were cultured and treated with the compounds at 37°C, 5%CO2 for 24 h. […] After 1.5 h of incubation, the optical density was measured using the spectrophotometer at 650 nm in the microplate reader of SpectraMax 340PC. The cell viability of each well was determined using ATPlite 1 Step following the manufacturer’s instruction. The luminescence signal in each well of plates was measured in the microplate reader of Envision.

Compound | response of EMT6 model to single agent [1] | activity of positive control in TLR7 assay (hTLR7)
C=CCn1c(=O)c2cnc(Nc3ccc(N4CCN(C)CC4)cc3)nc2n1-c1cccc(C(C)(C)O)n1 [AZD-1775] | largely resistant | 
CCOCc1nc2c(N)nc3ccccc3c2n1CC(C)(C)O [R848] |  | active
